These are literature values, as cited in patent US12336538B2, “Method for controlling rats and mice with cholecalciferol baits” (priority 2014, dated 2025).

Data set [1] deals with rat population.
The subject of data set [2] is bait shyness. Conditions: Gould and Holmes, Pest Manag. Sci. 2008.

Consider `C=C1CC[C@H](O)C/C1=C/C=C1\CCC[C@]2(C)[C@@H]([C@H](C)CCCC(C)C)CC[C@@H]12` [cholecalciferol, Cholecalciferol], for which, in data set [1] (0.1% cholecalciferol alone, only one day of feeding, Posipischil and Schnorbach 1994), the “suitability to control a rat population” value is “not suitable to control a rat population”. For the same compound, the “suitability to control rat population” value in data set [1] (cholecalciferol alone, Kocher and Navjot 2013) is “not suitable to control rat population”.

With `COc1ccc2c(c1)[C@]13CCCC[C@@H]1[C@H](C2)N(C)CC3` [dextromethorphan], the “prevention of bait shyness to cholecalciferol” value in data set [2] is “ineffective”.
